Assay: xn = mol fraction of the nth substance listed
Conditions: for viscosity / mass density: 91.2 kPa, Liquid; for viscosity: Concentric cylinders viscometry; for mass density: Vibrating tube method; for surface tension liquid-gas: Ring tensiometer

C[C@H](O)C(=O)O [(S)-2-hydroxypropanoic acid] + O=C[C@H](O)[C@@H](O)[C@H](O)[C@H](O)CO
x1 = 0.833
Conditions | mass density [kg/m3] | surface tension liquid-gas [mN/m] | viscosity [mPa·s]
293 K | 1280 | – | 335
298 K | 1270 | 37.42 | –
303 K | 1270 | – | 161
308 K | 1270 | – | –
313 K | 1260 | – | 79
318 K | 1260 | – | –
323 K | 1250 | – | 34
333 K | – | – | 18
343 K | – | – | 16
353 K | – | – | 13

C[C@H](O)C(=O)O [(S)-2-hydroxypropanoic acid] + C[N+](C)(C)CCO.[Cl-]
x2 = 0.5
Conditions | mass density [kg/m3] | surface tension liquid-gas [mN/m] | viscosity [mPa·s]
293 K | 1150 | – | 309
298 K | 1150 | 42.87 | –
303 K | 1150 | – | 151
308 K | 1140 | – | –
313 K | 1140 | – | 101
318 K | 1140 | – | –
323 K | 1130 | – | 59
333 K | – | – | 35
343 K | – | – | 34
353 K | – | – | 25
